Test results: patent US8940742B2, “Heterocyclic compounds and uses thereof” (Infinity Pharmaceuticals, Inc., priority 2012, dated 2015)

What was measured:
Raw264.7 p110 γ = biological target: T1, Raw264.7 p110 γ (Mus musculus, UniProt Q9JHG7); experiment: Raw264.7 p110 γ cellular assay (phospho-AKT); type: cell-based; conditions: serum-starved RAW264.7 cells stimulated with C5a
T1 construct: reduction of phospho-AKT in stimulated RAW 264.7 cells; endogenous in cells; host or cells: RAW264.7 macrophages
T1 sequence (Q9JHG7 whole entry): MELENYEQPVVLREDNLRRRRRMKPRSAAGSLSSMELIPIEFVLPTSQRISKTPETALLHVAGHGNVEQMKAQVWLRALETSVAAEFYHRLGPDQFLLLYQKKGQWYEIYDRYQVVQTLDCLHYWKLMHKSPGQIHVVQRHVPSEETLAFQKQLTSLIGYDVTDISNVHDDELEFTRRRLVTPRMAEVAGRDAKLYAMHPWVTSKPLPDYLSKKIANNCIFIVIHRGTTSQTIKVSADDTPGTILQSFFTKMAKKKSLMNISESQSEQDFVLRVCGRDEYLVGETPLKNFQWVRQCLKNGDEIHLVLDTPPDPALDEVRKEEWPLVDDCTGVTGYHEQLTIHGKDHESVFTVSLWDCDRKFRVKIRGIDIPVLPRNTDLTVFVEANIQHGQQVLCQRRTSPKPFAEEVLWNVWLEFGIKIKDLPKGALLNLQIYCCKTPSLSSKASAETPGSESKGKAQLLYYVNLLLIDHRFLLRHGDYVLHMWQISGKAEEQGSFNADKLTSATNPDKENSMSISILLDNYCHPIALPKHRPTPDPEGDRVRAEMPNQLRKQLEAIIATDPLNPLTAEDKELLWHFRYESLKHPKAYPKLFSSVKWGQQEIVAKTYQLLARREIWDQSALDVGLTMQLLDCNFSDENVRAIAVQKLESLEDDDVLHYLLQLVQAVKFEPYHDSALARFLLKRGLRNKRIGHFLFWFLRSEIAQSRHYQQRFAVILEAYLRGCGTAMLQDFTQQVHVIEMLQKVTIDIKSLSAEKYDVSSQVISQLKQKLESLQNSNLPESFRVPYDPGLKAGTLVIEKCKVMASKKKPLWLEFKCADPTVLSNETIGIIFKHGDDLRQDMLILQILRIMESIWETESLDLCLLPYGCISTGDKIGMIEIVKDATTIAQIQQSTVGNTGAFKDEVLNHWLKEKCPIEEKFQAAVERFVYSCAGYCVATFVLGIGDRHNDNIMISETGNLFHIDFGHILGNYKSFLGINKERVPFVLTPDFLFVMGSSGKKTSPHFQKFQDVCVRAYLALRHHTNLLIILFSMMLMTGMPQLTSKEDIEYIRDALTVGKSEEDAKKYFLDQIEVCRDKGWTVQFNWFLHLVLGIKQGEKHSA
Description: (b) PI3K-γ Selective Assay
Briefly, serum-starved PAW264.7 cells are stimulated with a known GPCR agonist C5a. […] Cells can be treated with test compounds prior to, simultaneously with, or subsequent to the stimulation by C5a. RAW 264.7 cells respond to the complement component fragment C5a through activation of the C5a receptor, and the C5a receptor activates macrophages and induces cell migration.

PI3K γ = biological target: T2, PI3K γ (Homo sapiens, UniProt P48736); experiment: PI3-Kinase Promega ADP-Glo Max assay; type: biochemical; conditions: 40 nM kinase, 3 mM ATP, 500 uM diC8-PtdInsP
T2 construct: purchased Millipore
Method in brief: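 Human class I PI3K reactions ran 2 hours at room temperature, followed by stop solution (40 min) and detection mix (1 hour) before luminescence reading.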

RAJI p110 δ = RAJI p110 δ (Homo sapiens, UniProt O00329); experiment: RAJI p110 δ cellular assay (phospho-AKT);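 note: potency based on lowered phosphorylated AKT in RAJI cells, as a readout of PI3K-δ dependent B-cell receptor signaling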
Chain of RAJI p110 δ (O00329 whole entry): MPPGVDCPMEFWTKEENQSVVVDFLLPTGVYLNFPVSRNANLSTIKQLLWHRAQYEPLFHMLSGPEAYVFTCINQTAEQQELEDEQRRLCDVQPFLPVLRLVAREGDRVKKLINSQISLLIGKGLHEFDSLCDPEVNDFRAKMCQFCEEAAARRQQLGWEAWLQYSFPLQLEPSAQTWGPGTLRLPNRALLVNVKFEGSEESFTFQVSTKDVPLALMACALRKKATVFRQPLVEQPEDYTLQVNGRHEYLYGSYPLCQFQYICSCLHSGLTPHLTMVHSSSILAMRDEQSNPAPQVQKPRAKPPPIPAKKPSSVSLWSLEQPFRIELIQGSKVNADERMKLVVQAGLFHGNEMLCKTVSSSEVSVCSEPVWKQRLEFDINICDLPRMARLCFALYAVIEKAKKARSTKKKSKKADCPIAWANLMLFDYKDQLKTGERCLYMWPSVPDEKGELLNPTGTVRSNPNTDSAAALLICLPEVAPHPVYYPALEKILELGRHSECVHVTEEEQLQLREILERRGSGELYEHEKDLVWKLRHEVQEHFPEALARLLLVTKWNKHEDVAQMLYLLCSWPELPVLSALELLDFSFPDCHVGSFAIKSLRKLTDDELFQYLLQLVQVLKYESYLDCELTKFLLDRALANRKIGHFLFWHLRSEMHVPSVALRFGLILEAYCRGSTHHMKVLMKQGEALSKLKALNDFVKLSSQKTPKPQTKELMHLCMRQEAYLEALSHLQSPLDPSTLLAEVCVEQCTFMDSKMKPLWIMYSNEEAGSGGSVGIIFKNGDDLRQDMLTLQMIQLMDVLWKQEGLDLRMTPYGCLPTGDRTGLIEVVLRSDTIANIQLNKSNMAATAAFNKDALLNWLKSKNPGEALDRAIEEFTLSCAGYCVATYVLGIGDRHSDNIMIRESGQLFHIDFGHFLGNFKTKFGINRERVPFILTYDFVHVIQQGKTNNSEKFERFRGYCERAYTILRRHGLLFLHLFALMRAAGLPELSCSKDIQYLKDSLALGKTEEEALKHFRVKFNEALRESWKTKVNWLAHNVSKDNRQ
Chain of RAJI p110 δ (P27986 whole entry partner): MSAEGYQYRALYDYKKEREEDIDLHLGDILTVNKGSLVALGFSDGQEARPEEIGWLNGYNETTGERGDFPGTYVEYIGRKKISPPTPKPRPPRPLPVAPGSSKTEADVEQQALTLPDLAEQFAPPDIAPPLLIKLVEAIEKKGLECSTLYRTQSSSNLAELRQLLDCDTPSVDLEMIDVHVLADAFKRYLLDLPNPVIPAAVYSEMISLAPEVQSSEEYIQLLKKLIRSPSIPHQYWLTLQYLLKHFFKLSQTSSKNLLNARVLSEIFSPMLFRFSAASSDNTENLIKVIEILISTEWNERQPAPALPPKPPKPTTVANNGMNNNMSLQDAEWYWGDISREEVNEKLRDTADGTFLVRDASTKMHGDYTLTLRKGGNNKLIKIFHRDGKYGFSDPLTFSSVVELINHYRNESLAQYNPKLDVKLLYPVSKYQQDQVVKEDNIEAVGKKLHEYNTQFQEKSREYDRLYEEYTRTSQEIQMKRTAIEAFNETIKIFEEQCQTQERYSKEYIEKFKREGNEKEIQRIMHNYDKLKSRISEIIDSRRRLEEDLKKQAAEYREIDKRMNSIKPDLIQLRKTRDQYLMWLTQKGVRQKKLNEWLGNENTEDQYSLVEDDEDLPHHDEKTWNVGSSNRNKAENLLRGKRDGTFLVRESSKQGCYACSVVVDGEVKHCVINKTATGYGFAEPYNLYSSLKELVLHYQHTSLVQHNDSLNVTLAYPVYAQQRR
Description: (a) PI3K-δ Selective Assay
Reduction of phospho-AKT is indicative of compounds that may inhibit B-cell proliferation and function in certain diseases.

PI3K δ = biological target: T3, PI3K δ (Homo sapiens, UniProt O00329); experiment: PI3-Kinase Promega ADP-Glo Max assay; type: biochemical; conditions: 20 nM kinase, 3 mM ATP, 500 uM diC8-PtdInsP
T3 construct: purchased Millipore
T3 sequence (O00329 whole entry): as the sequence (O00329 whole entry) above
T3 sequence (P27986 whole entry partner): as the sequence (P27986 whole entry partner) above
Method in brief: (§1)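 Human class I PI3K (20 nM α or δ, 40 nM β) pre-incubated 15 min with compound in HEPES pH 7.4 buffer with MgCl2, then reacted 2 h at room temperature with 3 mM ATP and 500 uM diC8-PtdInsP. ADP measured by ADP-Glo Max luminescence; % inhibition fitted to 4-parameter logistic for IC50.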

PI3K β = biological target: T4, PI3K β (Homo sapiens, UniProt P42338); experiment: PI3-Kinase Promega ADP-Glo Max assay; type: biochemical; conditions: 40 nM kinase, 3 mM ATP, 500 uM diC8-PtdInsP
T4 construct: purchased Millipore
Method in brief: as §1

PI3K α = biological target: T5, PI3K α (Homo sapiens, UniProt P42336); experiment: PI3-Kinase Promega ADP-Glo Max assay; type: biochemical; conditions: 20 nM kinase, 3 mM ATP, 500 uM diC8-PtdInsP
T5 construct: purchased Millipore
T5 sequence (P42336 whole entry): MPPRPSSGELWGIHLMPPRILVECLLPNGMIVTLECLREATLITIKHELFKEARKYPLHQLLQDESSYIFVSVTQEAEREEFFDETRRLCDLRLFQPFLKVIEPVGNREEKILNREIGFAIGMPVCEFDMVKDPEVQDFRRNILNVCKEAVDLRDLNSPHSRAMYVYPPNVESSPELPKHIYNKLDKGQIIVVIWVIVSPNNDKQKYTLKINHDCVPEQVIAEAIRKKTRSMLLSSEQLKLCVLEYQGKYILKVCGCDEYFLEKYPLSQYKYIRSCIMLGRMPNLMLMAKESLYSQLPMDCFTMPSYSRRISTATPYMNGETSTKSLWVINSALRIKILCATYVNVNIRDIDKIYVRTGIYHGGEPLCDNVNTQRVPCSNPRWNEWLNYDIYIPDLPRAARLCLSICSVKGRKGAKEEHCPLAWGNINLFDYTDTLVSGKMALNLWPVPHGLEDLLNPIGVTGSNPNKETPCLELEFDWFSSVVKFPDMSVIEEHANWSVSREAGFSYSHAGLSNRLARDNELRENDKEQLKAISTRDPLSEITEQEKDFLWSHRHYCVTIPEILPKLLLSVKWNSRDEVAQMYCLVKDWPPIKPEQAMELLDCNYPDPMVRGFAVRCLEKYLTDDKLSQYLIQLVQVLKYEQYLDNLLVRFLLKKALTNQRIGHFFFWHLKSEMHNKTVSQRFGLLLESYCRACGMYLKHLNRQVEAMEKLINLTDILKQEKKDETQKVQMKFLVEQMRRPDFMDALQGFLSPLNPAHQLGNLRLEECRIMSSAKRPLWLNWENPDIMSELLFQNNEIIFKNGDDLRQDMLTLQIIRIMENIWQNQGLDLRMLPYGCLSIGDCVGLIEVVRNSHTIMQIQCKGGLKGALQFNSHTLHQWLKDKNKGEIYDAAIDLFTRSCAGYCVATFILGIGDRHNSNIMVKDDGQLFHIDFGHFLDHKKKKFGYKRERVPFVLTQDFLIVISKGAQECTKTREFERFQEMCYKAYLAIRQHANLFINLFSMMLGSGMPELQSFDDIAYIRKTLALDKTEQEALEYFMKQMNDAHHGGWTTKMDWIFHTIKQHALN
T5 sequence (P27986 whole entry partner): as the sequence (P27986 whole entry partner) above
Method in brief: as §1

Row | Compound | IC50 (Raw264.7 p110 γ) | IC50 (PI3K γ) | IC50 (RAJI p110 δ) | IC50 (PI3K δ) | IC50 (PI3K β) | IC50 (PI3K α)
1 | COc1cc(-c2cccc3cc([C@H](C)NC(=O)c4c(N)nn5cccnc45)n(-c4ccccc4)c(=O)c23)ccn1 [Compound 116] | < 100 nM | 100 to 1000 nM | < 100 nM | 1000 to 10000 nM | 1000 to 10000 nM | 1000 to 10000 nM
2 | C[C@H](NC(=O)c1c(N)nn2cccnc12)c1cc2cccc(-c3ccncc3)c2c(=O)n1-c1ccccc1 [Compound 117] | < 100 nM | 100 to 1000 nM | < 100 nM | 1000 to 10000 nM | > 10000 nM | 1000 to 10000 nM
3 | C[C@H](NC(=O)c1c(N)nn2cccnc12)c1cc2cccc(-c3cccnc3)c2c(=O)n1-c1ccccc1 [Compound 118] | < 100 nM | 100 to 1000 nM | < 100 nM | 100 to 1000 nM | > 10000 nM | 1000 to 10000 nM
4 | COc1cncc(-c2cccc3cc([C@H](C)NC(=O)c4c(N)nn5cccnc45)n(-c4ccccc4)c(=O)c23)c1 [Compound 119] | < 100 nM | < 100 nM | < 100 nM | 100 to 1000 nM | > 10000 nM | 1000 to 10000 nM
5 | C[C@H](NC(=O)c1c(N)nn2cccnc12)c1cc2cccc(-c3cncc(NS(C)(=O)=O)c3)c2c(=O)n1-c1ccccc1 [Compound 120] | 100 to 1000 nM | 100 to 1000 nM | < 100 nM | 100 to 1000 nM | > 10000 nM | 1000 to 10000 nM
6 | C[C@H](NC(=O)c1c(N)nn2cccnc12)c1cc2cccc(-c3ccc(=O)n(C)c3)c2c(=O)n1-c1ccccc1 [Compound 121] | < 100 nM | < 100 nM | < 100 nM | 100 to 1000 nM | > 10000 nM | > 10000 nM
7 | Cc1cccc2cc([C@H](C)NC(=O)c3c(N)nn4cccnc34)n(-c3ccccc3)c(=O)c12 [Compound 123] | < 100 nM | 100 to 1000 nM | < 100 nM | 1000 to 10000 nM | 1000 to 10000 nM | 1000 to 10000 nM
8 | C[C@H](NC(=O)c1c(N)nn2ccc(-c3cccc(S(C)(=O)=O)c3)nc12)c1cc2cccc(Cl)c2c(=O)n1-c1ccccc1 [Compound 127] | < 100 nM | < 100 nM | < 100 nM | < 100 nM | < 100 nM | < 100 nM
9 | COc1ncc(-c2cccc3cc([C@H](C)NC(=O)c4c(N)nn5cccnc45)n(-c4ccccc4)c(=O)c23)cn1 [Compound 128] | < 100 nM | 100 to 1000 nM | < 100 nM | 1000 to 10000 nM | 1000 to 10000 nM | 1000 to 10000 nM
10 | C[C@H](NC(=O)c1c(N)nn2cccnc12)c1cc2cccc(O)c2c(=O)n1-c1ccccc1 [Compound 132] | < 100 nM | 1000 to 10000 nM | 100 to 1000 nM | > 10000 nM | 1000 to 10000 nM | > 10000 nM
11 | C[C@H](NC(=O)c1c(N)nn2cccnc12)c1cc2ccccc2c(=O)n1-c1ccccc1 [Compound 133] | < 100 nM | 100 to 1000 nM | 100 to 1000 nM | 1000 to 10000 nM | 1000 to 10000 nM | > 10000 nM
12 | C[C@H](NC(=O)c1c(N)ncc2cccnc12)c1cc2cccc(Cl)c2c(=O)n1-c1ccccc1 [Compound 137] | < 100 nM | 100 to 1000 nM | < 100 nM | 100 to 1000 nM | 100 to 1000 nM | 1000 to 10000 nM
13 | CC(C)Oc1cc(-c2cccc3cc([C@H](C)NC(=O)c4c(N)nn5cccnc45)n(-c4ccccc4)c(=O)c23)ccn1 [Compound 138] | < 100 nM | 100 to 1000 nM | < 100 nM | 1000 to 10000 nM | 1000 to 10000 nM | > 10000 nM
14 | COc1cc(-c2cccc3cc([C@H](C)NC(=O)c4ncc(C)nc4N)n(-c4ccccc4)c(=O)c23)ccn1 [Compound 139] | < 100 nM | 1000 to 10000 nM | 100 to 1000 nM | 1000 to 10000 nM | > 10000 nM | > 10000 nM
15 | COc1cc(-c2cccc3cc([C@H](C)NC(=O)c4c(N)ncc5cccnc45)n(-c4ccccc4)c(=O)c23)ccn1 [Compound 140] | < 100 nM | < 100 nM | < 100 nM | 100 to 1000 nM | > 10000 nM | 1000 to 10000 nM
16 | Cc1ccn2nc(N)c(C(=O)N[C@@H](C)c3cc4cccc(Cl)c4c(=O)n3-c3ccccc3)c2n1 [Compound 142] | < 100 nM | 100 to 1000 nM | < 100 nM | 100 to 1000 nM | < 100 nM | 1000 to 10000 nM

Row | Compound | IC50 (Raw264.7 p110 γ) | IC50 (PI3K γ) | IC50 (RAJI p110 δ) | IC50 (PI3K δ) | IC50 (PI3K β) | IC50 (PI3K α)
17 | COc1cc(-c2cccc3nc([C@H](C)NC(=O)c4c(N)nn5cccnc45)n(-c4ccccc4)c(=O)c23)ccn1 [Compound 144] | < 100 nM | < 100 nM | < 100 nM | 100 to 1000 nM | 1000 to 10000 nM | 100 to 1000 nM
18 | CC(C)Oc1cc(-c2cccc3nc([C@H](C)NC(=O)c4c(N)nn5cccnc45)n(-c4ccccc4)c(=O)c23)ccn1 [Compound 145] | < 100 nM | 1000 to 10000 nM | < 100 nM | 1000 to 10000 nM | 1000 to 10000 nM | > 10000 nM
19 | COc1cc(-c2cccc3cc([C@H](C)NC(=O)c4c(N)nn5cccnc45)n(C4CC4)c(=O)c23)ccn1 [Compound 150] | < 100 nM | 1000 to 10000 nM | 100 to 1000 nM | 1000 to 10000 nM | 1000 to 10000 nM | 1000 to 10000 nM
20 | Cc1cc(C)n2nc(N)c(C(=O)N[C@@H](C)c3cc4cccc(Cl)c4c(=O)n3-c3ccccc3)c2n1 [Compound 152] | < 100 nM | 100 to 1000 nM | < 100 nM | 1000 to 10000 nM | 100 to 1000 nM | 1000 to 10000 nM
21 | C[C@H](NC(=O)c1c(N)nn2cccnc12)c1cc2cccc(C#CCN)c2c(=O)n1-c1ccccc1 [Compound 153] | 100 to 1000 nM | 100 to 1000 nM | 100 to 1000 nM | 1000 to 10000 nM | 1000 to 10000 nM | 1000 to 10000 nM
22 | C[C@H](NC(=O)c1c(N)nn2cccnc12)c1cc2cccc(C#CCCN)c2c(=O)n1-c1ccccc1 [Compound 154] | 100 to 1000 nM | 100 to 1000 nM | 100 to 1000 nM | 1000 to 10000 nM | 1000 to 10000 nM | 1000 to 10000 nM
23 | C=CC(=O)NCC#Cc1cccc2cc([C@H](C)NC(=O)c3c(N)nn4cccnc34)n(-c3ccccc3)c(=O)c12 [Compound 155] | < 100 nM | < 100 nM | < 100 nM | 100 to 1000 nM | 1000 to 10000 nM | 1000 to 10000 nM
24 | C[C@H](NC(=O)c1c(N)nn2cccnc12)c1cc2cccc(C#CCNC(=O)C3CC(=O)CC(=O)C3)c2c(=O)n1-c1ccccc1 [Compound 156] | 100 to 1000 nM | < 100 nM | 1000 to 10000 nM | 100 to 1000 nM | 1000 to 10000 nM | 1000 to 10000 nM
25 | C[C@H](NC(=O)c1c(N)nn2cccnc12)c1cc2cccc(C#CCNC(=O)[C@@H]3CCC(=O)O3)c2c(=O)n1-c1ccccc1 [Compound 157] | < 100 nM | < 100 nM | < 100 nM | 100 to 1000 nM | 100 to 1000 nM | 100 to 1000 nM
26 | C[C@H](NC(=O)c1c(N)nn2cccnc12)c1cc2cccc(C#CCNC(=O)[C@H]3CCC(=O)O3)c2c(=O)n1-c1ccccc1 [Compound 158] | < 100 nM | < 100 nM | < 100 nM | 1000 to 10000 nM | 1000 to 10000 nM | 1000 to 10000 nM
27 | C[C@H](NC(=O)c1c(N)nn2cccnc12)c1cc2cccc(C#CCNC(=O)C3CCCCC3)c2c(=O)n1-c1ccccc1 [Compound 159] | < 100 nM | 100 to 1000 nM | < 100 nM | 1000 to 10000 nM | 1000 to 10000 nM | 1000 to 10000 nM
28 | C=CC(=O)NCCC#Cc1cccc2cc([C@H](C)NC(=O)c3c(N)nn4cccnc34)n(-c3ccccc3)c(=O)c12 [Compound 160] | < 100 nM | 100 to 1000 nM | < 100 nM | 1000 to 10000 nM | 1000 to 10000 nM | 1000 to 10000 nM
29 | C[C@H](NC(=O)c1c(N)nn2cccnc12)c1cc2cccc(C#CCCNC(=O)[C@H]3CCC(=O)O3)c2c(=O)n1-c1ccccc1 [Compound 161] | < 100 nM | 100 to 1000 nM | < 100 nM | 1000 to 10000 nM | > 10000 nM | 1000 to 10000 nM
30 | C[C@H](NC(=O)c1c(N)nn2cccnc12)c1cc2cccc(C#CCNC(=O)C3CCC(=O)C3)c2c(=O)n1-c1ccccc1 (stereo partly drawn) [Compound 162] | < 100 nM | < 100 nM | < 100 nM | 1000 to 10000 nM | 1000 to 10000 nM | 100 to 1000 nM
31 | C[C@H](NC(=O)c1c(N)nn2cccnc12)c1cc2cccc(C#CCNC(=O)c3ccc(C#N)o3)c2c(=O)n1-c1ccccc1 [Compound 164] | < 100 nM | 100 to 1000 nM | < 100 nM | 1000 to 10000 nM | 1000 to 10000 nM | 100 to 1000 nM
